In ChEMBL document CHEMBL6109117, “Synthesis of an RBM39 Degrader That Downregulates CEP192 and Induces Disorganized Spindle Structures” (J Med Chem, 2025):

Test system: MOLM-13
Experiment: Induction of RBM39 degradation in human MOLM-13 cells incubated for 24 hrs by Western blot analysis
Type: cell-based

With `Cc1ccc(NS(=O)(=O)c2cccc(NC(=O)C(=O)N3CCC[C@@H]3CO)c2)c2[nH]cc(C#N)c12` the Activity was “Dose-dependent-effect”.
